From PMC8253220, “Molecular design, synthesis and in vitro biological evaluation of thienopyrimidine–hydroxamic acids as chimeric kinase HDAC inhibitors: a challenging approach to combat cancer” (Journal of Enzyme Inhibition and Medicinal Chemistry, 2021)
Values joined by “and” are separate entries in the source; they are usually repeats but may differ in a detail not shown here. Identical values can stand only once.

What was measured:
Test in all cases: NCI one-dose screen
Type in all cases: cell-based, human
ACHN = settings: Renal ACHN, 10 µM single dose
Summary of the method: (§1)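 At 10 μM, a single concentration, compounds were evaluated for antiproliferative effect in the NCI 60-line screen, with growth expressed relative to untreated control cells.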

HOP-62 = settings: NSCLC HOP-62, 10 µM single dose
Summary of the method: (§2)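 Compounds were tested at a single dose of 10 μM across the full NCI-60 cell line panel. Growth was expressed as percent growth relative to untreated control cells, reported as percent inhibition.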

OVCAR-5 = settings: Ovarian OVCAR-5, 10 µM single dose
Summary of the method: as §1

EKVX = settings: NSCLC EKVX, 10 µM single dose
Summary of the method: (§3)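 Following the standard NCI-60 protocol, compounds were applied once at 10 μM to all 60 cancer lines. Read-out is percent growth versus untreated controls, expressed as inhibition %.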

SK-MEL-5 = settings: Melanoma SK-MEL-5, 10 µM single dose
Summary of the method: as §1

U251 = settings: CNS U251, 10 µM single dose
Summary of the method: as §3

K-562 = settings: Leukemia K-562, 10 µM single dose
Summary of the method: as §1

DU-145 = settings: Prostate DU-145, 10 µM single dose
Summary of the method: as §1

IGROV1 = settings: Ovarian IGROV1, 10 µM single dose
Summary of the method: as §1

COLO 205 = settings: Colon COLO 205, 10 µM single dose
Summary of the method: as §1

SK-MEL-28 = settings: Melanoma SK-MEL-28, 10 µM single dose
Summary of the method: as §2

NCI-H522 = settings: NSCLC NCI-H522, 10 µM single dose
Summary of the method: as §3

MALME-3M = settings: Melanoma MALME-3M, 10 µM single dose
Summary of the method: as §1

SW-620 = settings: Colon SW-620, 10 µM single dose
Summary of the method: as §2

LOX IMVI = settings: Melanoma LOX IMVI, 10 µM single dose
Summary of the method: as §1

OVCAR-3 = settings: Ovarian OVCAR-3, 10 µM single dose
Summary of the method: as §1

OVCAR-8 = settings: Ovarian OVCAR-8, 10 µM single dose
Summary of the method: as §1

NCI-H23 = settings: NSCLC NCI-H23, 10 µM single dose
Summary of the method: as §3

MDA-MB-231/ATCC = settings: Breast MDA-MB-231/ATCC, 10 µM single dose
Summary of the method: as §1

SF-268 = settings: CNS SF-268, 10 µM single dose
Summary of the method: as §3

RXF 393 = settings: Renal RXF 393, 10 µM single dose
Summary of the method: as §1

MCF7 = settings: Breast MCF7, 10 µM single dose
Summary of the method: as §3

HOP-92 = settings: NSCLC HOP-92, 10 µM single dose
Summary of the method: as §1

BT-549 = settings: Breast BT-549, 10 µM single dose
Summary of the method: as §1

CCRF-CEM = settings: Leukemia CCRF-CEM, 10 µM single dose
Summary of the method: as §1

HCC-2998 = settings: Colon HCC-2998, 10 µM single dose
Summary of the method: as §1

PC-3 = settings: Prostate PC-3, 10 µM single dose
Summary of the method: as §2

MDA-MB-468 = settings: Breast MDA-MB-468, 10 µM single dose
Summary of the method: as §3

TK-10 = settings: Renal TK-10, 10 µM single dose
Summary of the method: as §1

NCI-H226 = settings: NSCLC NCI-H226, 10 µM single dose
Summary of the method: as §3

SNB-75 = settings: CNS SNB-75, 10 µM single dose
Summary of the method: as §3

OVCAR-4 = settings: Ovarian OVCAR-4, 10 µM single dose
Summary of the method: as §1

SN12C = settings: Renal SN12C, 10 µM single dose
Summary of the method: as §1

786-0 = settings: Renal 786-0, 10 µM single dose
Summary of the method: as §1

HCT-15 = settings: Colon HCT-15, 10 µM single dose
Summary of the method: as §1

SMILES	Growth Percent (ACHN)	Growth Percent (HOP-62)	Growth Percent (OVCAR-5)	Growth Percent (EKVX)	Growth Percent (SK-MEL-5)	Growth Percent (U251)	Growth Percent (K-562)	Growth Percent (DU-145)	Growth Percent (IGROV1)	Growth Percent (COLO 205)	Growth Percent (SK-MEL-28)	Growth Percent (NCI-H522)	Growth Percent (MALME-3M)	Growth Percent (SW-620)	Growth Percent (LOX IMVI)	Growth Percent (OVCAR-3)	Growth Percent (OVCAR-8)	Growth Percent (NCI-H23)	Growth Percent (MDA-MB-231/ATCC)	Growth Percent (SF-268)	further results
Cc1c(C(=O)NCCC(=O)NO)sc2ncnc(Nc3ccc(Cl)cc3)c12 [Compound 19c, 4–(4-chlorophenylamino)-N-(3-(hydroxyamino)-3-oxopropyl)-5-methylthieno[2,3-d]pyrimidine-6-carboxamide]	106.8% and 106.82%	105.8% and 105.87%	110.3% and 110.34%	98.4% and 98.49%	102.4% and 102.44%	104.8% and 104.84%	106.4% and 106.41%	114.2%	105.4% and 105.45%	115.7% and 115.76%	112.1%	90.0% and 90.06%	104.5% and 104.57%	102.5% and 102.53%	98.8% and 98.82%	110.3% and 110.31%	104.1% and 104.13%	102.7%	104.1% and 104.18%	97.6% and 97.68%	Growth Percent (RXF 393): 109.2% and 109.21%; Growth Percent (MCF7): 93.4%; Growth Percent (HOP-92): 124.7% and 124.71%; Growth Percent (BT-549): 103.5% and 103.54%; Growth Percent (CCRF-CEM): 104.7% and 104.72%; Growth Percent (HCC-2998): 105.3% and 105.39%; Growth Percent (PC-3): 110.4% and 110.47%; Growth Percent (MDA-MB-468): 119.7% and 119.73%; Growth Percent (TK-10): 115.9% and 115.96%; Growth Percent (NCI-H226): 106.8% and 106.83%; Growth Percent (SNB-75): 91.7% and 91.75%; Growth Percent (OVCAR-4): 112.3% and 112.39%; Growth Percent (SN12C): 101.7% and 101.77%; Growth Percent (786-0): 104.9% and 104.99%; Growth Percent (HCT-15): 99.7% and 99.76%
Cc1c(C(=O)NCCC(=O)NO)sc2ncnc(Nc3ccc(F)c(Cl)c3)c12 [Compound 19d, 4–(3-chloro-4-fluorophenylamino)-N-(3-(hydroxyamino)-3-oxopropyl)-5-methylthieno[2,3-d]pyrimidine-6-carboxamide]	102.1% and 102.14%	104.5% and 104.52%	108.4% and 108.42%	99.4% and 99.43%	101.8% and 101.85%	102.2% and 102.27%	113.3%	111.2% and 111.26%	106.2% and 106.28%	117.3% and 117.34%	111.5% and 111.54%	95.5% and 95.56%	112.6% and 112.63%	101.5%	98.8% and 98.84%	106.5%	101.3% and 101.35%	100.6%	102.5% and 102.53%	96.4% and 96.48%	Growth Percent (RXF 393): 102.0% and 102.06%; Growth Percent (MCF7): 95.1% and 95.18%; Growth Percent (HOP-92): 117.7% and 117.77%; Growth Percent (BT-549): 113.9% and 113.96%; Growth Percent (CCRF-CEM): 105.2% and 105.23%; Growth Percent (HCC-2998): 104.7% and 104.72%; Growth Percent (PC-3): 103.5% and 103.52%; Growth Percent (MDA-MB-468): 102.7% and 102.77%; Growth Percent (TK-10): 107.2%; Growth Percent (NCI-H226): 104.0% and 104.06%; Growth Percent (SNB-75): 97.5%; Growth Percent (OVCAR-4): 108.8% and 108.82%; Growth Percent (SN12C): 102.7% and 102.77%; Growth Percent (786-0): 105.3% and 105.34%; Growth Percent (HCT-15): 101.5% and 101.58%
Cc1c(C(=O)NCCC(=O)NO)sc2ncnc(Nc3ccc(NC(=O)Nc4ccccc4)cc3)c12 [Compound 11a, 1–(4-(6-((3-(hydroxyamino)-3-oxopropyl)carbamoyl)-5-methylthieno[2,3-d]pyrimidin-4-ylamino)phenyl)-3-phenylurea]	101.6% and 101.68%	102.3% and 102.39%	106.2% and 106.26%	94.6% and 94.62%	99.1% and 99.18%	96.9% and 96.93%	108.3% and 108.34%	110.81%	103.0% and 103.03%	113.5% and 113.57%	105.1% and 105.11%	92.8%	103.6% and 103.62%	103.0% and 103.02%	95.3% and 95.38%	102.6% and 102.61%	101.0% and 101.03%	96.1% and 96.12%	97.6% and 97.67%	96.8% and 96.85%	Growth Percent (RXF 393): 107.3% and 107.33%; Growth Percent (MCF7): 92.3%; Growth Percent (HOP-92): 106.7% and 106.72%; Growth Percent (BT-549): 104.9%; Growth Percent (CCRF-CEM): 106.8% and 106.84%; Growth Percent (HCC-2998): 98.0% and 98.02%; Growth Percent (PC-3): 101.7% and 101.73%; Growth Percent (MDA-MB-468): 101.3% and 101.31%; Growth Percent (TK-10): 97.6% and 97.69%; Growth Percent (NCI-H226): 90.4% and 90.42%; Growth Percent (SNB-75): 79.7% and 79.72%; Growth Percent (OVCAR-4): 101.4% and 101.41%; Growth Percent (SN12C): 101.4% and 101.42%; Growth Percent (786-0): 98.2% and 98.21%; Growth Percent (HCT-15): 95.7% and 95.77%
